From patent publication US20240316146A1, “METHODS OF REDUCING NEUROPATHY AND NEUROPATHIC SYMPTOMS AND TREATING CANCER” (Bexion Pharmaceuticals Inc., priority 2021, published 2024)
“And” between values parts separate entries of the source, which are not always exact repeats. Equal values may be shown once.

Key:
[1] = test system: mouse oxaliplatin model of chemotherapy-induced neuropathy; assay: Thermal hypersensitivity, cold plate test 15° C., Study 1; assay type: in vivo
Experimental: (§1) 60 adult male C57/BL6 mice (Charles River), 6-7 weeks of age, were housed in groups of 5 in Perspex cages, in a controlled environment of constant temperature and humidity (temperature: 21±1° C., light: dark cycle of 12:12 hours), with food and water available ad libitum. Animals were allowed to recover from transportation for at least one week before commencing experiments.
(§2) Thermal hypersensitivity: Thermal hypersensitivity was assessed using a dynamic cold plate (Bioseb, France) set at a fixed temperature of 15° C. This method allows analysis of more integrated behaviors rather than reflex behaviors, e.g., the tail immersion test. In animal studies, thermal sensitivity is mostly evaluated based on nociceptive reaction latencies in response to a given thermal aversive stimulus. In this classical test, the temperature of the plate is fixed and remains constant: the latency to the first paw licking, jumps or withdrawal is taken as an index of nociceptive threshold. […] The results of the study are shown in Table 5 (raw data) below, Table 6 (summary) below, FIG. 4, and FIG. 5.
(§3) Warm vials of BQX-350 were brought to room temperature and reconstituted with 4 mL water for injection via syringe. The vials were gently agitated and/or vortexed for 15-20 sec and allowed to sit at room temp for 5 mins. The rehydrated solution contained 2.2 mg/mL SapC (8.8 mg SapC per vial). About […] of the formulation was injected to achieve a target dose of 20 mg/kg in each mouse. Pregabalin was reconstituted in water and injected to achieve a target dose of 30 mg/kg in each mouse.
(§4) A two-way repeated measures ANOVA with ‘treatment’ as a between subjects effect, and ‘day’ as a within subjects effect was used (using GraphPad Prism version 9.0 for Windows, GraphPad Software, San Diego California USA), followed by Dunnett's multi comparisons test. Data is presented as mean±SEM.

Body weights, Study 2 = assay type: in vivo, mouse; conditions: Group E Oxaliplatin/Pregabalin, individual mice
Text: Body Weights: The mice were weighed daily starting 1 day prior to treatment through day 9.

[2] = test system: mouse oxaliplatin model of chemotherapy-induced neuropathy; assay: Static mechanical (tactile) allodynia, von Frey filaments, Study 2; assay type: in vivo; conditions: for PWT 50% (left hind paw Paw Withdrawal Threshold 50%): Group E Oxaliplatin/Pregabalin 30 mg/kg (days 3, 5, 7, 9), N 12; for Individual Paw Withdrawal Threshold 50% (von Frey filaments): Study 2, oxaliplatin 10 mg/kg IP day 0 (+vehicle, BXQ-350 2 mg/kg IP or pregabalin 30 mg/kg IP), individual mice
Experimental: (§5) Static mechanical tactile allodynia: Static mechanical (tactile) allodynia was assessed by measurement of withdrawal threshold using calibrated (force; g) von-Frey monofilaments (Touch-Test Sensory Evaluator; Scientific Marketing Associates) applied to the plantar surface of the left hind-paw. The animals were placed in individual Perspex boxes on a raised metal mesh for 30-40 min before the test to habituate. A series of graduated von Frey hairs (0.07, 0.16, 0.4, 0.6 and 1 g) were applied in sequence with a protocol of 1 sec on 1 sec off repeated 10 times. Each hair was applied perpendicularly to the center of the ventral surface of the paw until it bent slightly. The force applied to the hind-paw of the animal to induce 5 responses out of 10 trials was recorded as paw withdrawal threshold (PWT) 50%.
as §1
Static mechanical tactile allodynia: The same apparatus and protocol were used as for Study 1.

[3] = test system: mouse oxaliplatin model of chemotherapy-induced neuropathy; assay: Thermal hypersensitivity, cold plate test, Study 2; conditions: Group E Oxaliplatin/Pregabalin 30 mg/kg (days 3, 5, 7, 9), N 12
Experimental: as §2, §1
Thermal hypersensitivity: The same apparatus and protocol were used as for Study 1. The results of Study 2 are shown in Table 11 (raw data), Table 12 (summary), FIG. 8, and FIG. 9.

[4] = test system: mouse oxaliplatin model of chemotherapy-induced neuropathy; assay: Static mechanical (tactile) allodynia, von Frey filaments, Study 1; assay type: in vivo
Experimental: as §1, §5, §3, §4

[5] = test system: A549 tumor spheroids with PBMCs; assay: 3D-tumor spheroid T-cell killing model (Incucyte); assay type: cell-based, human; conditions: BXQ-350 1.3 nM to 2.8 μM or Pembrolizumab 50 μg/ml; PBMCs with activation cocktail; day 6
Experimental: A549 human lung cancer cells, transfected with a lentivirus, were seeded in 96-wells ultra-low attachment plates at a concentration of 750 cells/well. The plates were then centrifuged at 1200 rpm for 2 min, to promote agglomeration of the cells and formation of spheroids. The plates then were incubated for three days at 37° C. After three days, freshly isolated human peripheral blood mononuclear cells (PBMCs) were added to the spheroids at a concentration of 10,000 PBMCs/well. To various wells were added one or more of: an activation cocktail containing an anti-CD3 antibody at a final concentration of 1 ng/ml and IL-12 at a final concentration of 10 ng/ml; BXQ-350 in serial dilutions from 25 μM to 1.27 nM; a positive control of Pembrolizumab at 50 μg/ml. A negative control group had no additions to the spheroids and PBMCs. The final volume of each well was then adjusted to 200 μL per well.
Plates were then left to incubate for an additional 30 minutes before being placed in the Incucyte® live cells analyzer; fluorescence was analyzed every 4 hours for 6 days. Images were then analyzed using the Incucyte® software to determine the IC50. Increased fluorescence intensity in A549 tumor cell spheroids correlates to an increased number of live Luc-A549 cells in the spheroids, and a lack of fluorescence denotes cell death.

[6] = cold plate 15° C., oxaliplatin 10 mg/kg IP day 0 (+vehicle, BXQ-350 20 mg/kg IP or pregabalin 30 mg/kg IP), group mean
[7] = oxaliplatin 10 mg/kg IP day 0 (+vehicle, BXQ-350 20 mg/kg IP or pregabalin 30 mg/kg IP), Baseline, individual mice
[8] = oxaliplatin 10 mg/kg IP day 0 (+vehicle, BXQ-350 20 mg/kg IP or pregabalin 30 mg/kg IP), Day 3, individual mice
[9] = oxaliplatin treated animals, day 3 to day 9, BXQ-350 20 mg/kg, pregabalin 30 mg/kg 2 hours before assessment
[10] = oxaliplatin 10 mg/kg IP day 0 (+vehicle, BXQ-350 20 mg/kg IP or pregabalin 30 mg/kg IP), group mean

Compound: CC(C)C[C@H](CN)CC(=O)O [Pregabalin]
- Latency (s) Baseline [1, 6]: 53.629 s
- Latency (s) D 3 [1, 6]: 49.400 s
- Latency (s) D 5 [1, 6]: 50.000 s
- Latency (s) D 7 [1, 6]: 47.183 s
- Latency (s) D 9 [1, 6]: 59.300 s
- Individual latency to displaying withdrawal behaviour in the cold plate test [1, 7]: 52.9 s and 74.9 s and 74.7 s and 57.3 s and 48.6 s and 40.2 s and 57.5 s and 67.5 s and 38.5 s and 44.8 s and 41.3 s and 45.6 s
- Individual latency to displaying withdrawal behaviour in the cold plate test [1, 8]: 56.7 s and 52.4 s and 44.4 s and 62.3 s and 57.6 s and 46.9 s and 63.6 s and 40.8 s and 58.2 s and 36.5 s and 52.5 s and 20.9 s
- Individual latency to displaying withdrawal behaviour in the cold plate test ([1]; oxaliplatin 10 mg/kg IP day 0 (+vehicle, BXQ-350 20 mg/kg IP or pregabalin 30 mg/kg IP), Day 5, individual mice): 22.2 s and 43.5 s and 91.7 s and 73.6 s and 41.5 s and 39.3 s and 61.3 s and 40.1 s and 30.1 s and 42.7 s and 45.2 s and 68.8 s
- Individual latency to displaying withdrawal behaviour in the cold plate test ([1]; oxaliplatin 10 mg/kg IP day 0 (+vehicle, BXQ-350 20 mg/kg IP or pregabalin 30 mg/kg IP), Day 7, individual mice): 60.2 s and 40.3 s and 72.5 s and 98.2 s and 55.5 s and 29.3 s and 32.1 s and 35.2 s and 35.8 s and 32.5 s and 31.4 s and 43.2 s
- Individual latency to displaying withdrawal behaviour in the cold plate test ([1]; oxaliplatin 10 mg/kg IP day 0 (+vehicle, BXQ-350 20 mg/kg IP or pregabalin 30 mg/kg IP), Day 9, individual mice): 37.8 s and 71.7 s and 75.8 s and 54.0 s and 72.7 s and 34.6 s and 84.7 s and 71.5 s and 74.9 s and 42.7 s and 38.9 s and 52.3 s
- thermal (cold) sensitivity, cold plate test (in words) [1, 9]: reduced thermal sensitivity
- Individual body weights (Body weights, Study 2; D 0): 21.9 g and 23.6 g (2×) and 28.1 g and 23.7 g and 25.7 g (2×) and 24.9 g and 21.8 g and 26.2 g and 23.4 g and 25.1 g
- Individual body weights (Body weights, Study 2; D 1): 21.6 g and 23.0 g and 26.8 g and 22.7 g and 25.2 g and 25.1 g and 23.1 g and 24.5 g and 23.6 g and 24.8 g and 22.6 g and 24.4 g
- Individual body weights (Body weights, Study 2; D 2): 21.8 g and 23.1 g and 27.0 g and 22.7 g and 25.1 g and 25.4 g and 23.8 g and 23.6 g and 23.4 g and 25.0 g and 22.8 g and 24.3 g
- Individual body weights (Body weights, Study 2; D 3): 21.8 g and 23.0 g and 26.6 g and 22.6 g and 24.7 g and 25.5 g and 23.4 g and 22.4 g and 22.9 g and 24.8 g and 22.8 g and 24.0 g
- Individual body weights (Body weights, Study 2; D 4): 21.8 g and 23.0 g and 27.0 g and 22.3 g and 25.0 g and 24.8 g and 23.4 g and 23.5 g and 23.7 g and 24.9 g and 23.1 g and 24.0 g
- Individual body weights (Body weights, Study 2; D 5): 21.4 g and 24.0 g and 27.6 g and 22.9 g
- Individual body weights (Body weights, Study 2; D −1): 21.9 g and 23.7 g and 27.9 g and 23.2 g (2×) and 23.4 g and 25.3 g and 23.3 g and 24.5 g and 24.2 g and 25.7 g and 24.8 g
- Individual body weights (Body weights, Study 2; D −2): 21.9 g and 23.1 g and 27.6 g and 22.7 g and 25.6 g and 25.9 g and 23.3 g and 24.6 g and 23.8 g and 25.4 g and 22.8 g and 24.4 g
- Individual body weights (Body weights, Study 2; D −3): 22.0 g and 23.0 g (4×) and 28.0 g and 26.0 g (3×) and 25.0 g (2×) and 24.0 g
- PWT 50% (left hind paw Paw Withdrawal Threshold 50%) ([2]; D3, mean (SEM)): ****0.933 g
- PWT 50% (left hind paw Paw Withdrawal Threshold 50%) ([2]; D5, mean (SEM)): ****0.833 g
- PWT 50% (left hind paw Paw Withdrawal Threshold 50%) ([2]; D7, mean (SEM)): ****0.817 g
- PWT 50% (left hind paw Paw Withdrawal Threshold 50%) ([2]; D9, mean (SEM)): ****0.967 g
- PWT 50% (left hind paw Paw Withdrawal Threshold 50%) ([2]; D −1, mean (SEM)): 0.697 g
- PWT 50% (left hind paw Paw Withdrawal Threshold 50%) ([2]; D −2, mean (SEM)): 0.600 g
- PWT 50% (left hind paw Paw Withdrawal Threshold 50%) ([2]; D −3, mean (SEM)): 0.633 g
- Individual Paw Withdrawal Threshold 50% (von Frey filaments) ([2]; D 3): 1.0 g (10×) and 0.6 g (2×)
- Individual Paw Withdrawal Threshold 50% (von Frey filaments) ([2]; D 5): 1.0 g (7×) and 0.6 g (5×)
- Individual Paw Withdrawal Threshold 50% (von Frey filaments) ([2]; D 7): 1.0 g (7×) and 0.6 g (4×) and 0.4 g
- Individual Paw Withdrawal Threshold 50% (von Frey filaments) ([2]; D 9): 1.0 g (11×) and 0.6 g
- Individual Paw Withdrawal Threshold 50% (von Frey filaments) ([2]; D −1): 1.0 g (5×) and 0.6 g (4×) and 0.4 g (2×) and 0.2 g
- Individual Paw Withdrawal Threshold 50% (von Frey filaments) ([2]; D −2): 0.4 g (2×) and 0.6 g (9×) and 1.0 g
- Individual Paw Withdrawal Threshold 50% (von Frey filaments) ([2]; D −3): 0.6 g (8×) and 1.0 g (2×) and 0.4 g (2×)
- Latency to withdrawal behaviour in the cold plate test (15° C.) ([3]; D3, mean (SEM)): ***77.083 + s
- Latency to withdrawal behaviour in the cold plate test (15° C.) ([3]; D5, mean (SEM)): 31.188 + s
- Latency to withdrawal behaviour in the cold plate test (15° C.) ([3]; D7, mean (SEM)): *42.792 + s
- Latency to withdrawal behaviour in the cold plate test (15° C.) ([3]; D9, mean (SEM)): 42.063 + s
- Latency to withdrawal behaviour in the cold plate test (15° C.) ([3]; D −1, mean (SEM)): 43.175 + s
- Latency to withdrawal behaviour in the cold plate test (15° C.) ([3]; D −2, mean (SEM)): 44.725 + s
- Latency to withdrawal behaviour in the cold plate test (15° C.) ([3]; D −3, mean (SEM)): 43.908 + s
- Individual Paw Withdrawal Threshold 50% (von Frey filaments) [4, 7]: 0.8 g (4×) and 0.6 g (2×) and 1.0 g (2×) and 0.4 g (2×) and 0.7 g and 0.5 g
- Individual Paw Withdrawal Threshold 50% (von Frey filaments) [4, 8]: 1.0 g (3×) and 0.6 g
- PWT 50% (g) Baseline [4, 10]: 0.698 g
- PWT 50% (g) D3 [4, 10]: *0.733 g
- PWT 50% (g) D5 [4, 10]: ***0.800 g
- PWT 50% (g) D7 [4, 10]: **0.733 g
- PWT 50% (g) D9 [4, 10]: ****0.883 g
- mechanical allodynia (in words) [4, 9]: reduced mechanical allodynia

Compound: Pembrolizumab: positive control at 50 μg/ml in the spheroid model
- cell death of spheroids (in words) [5]: increased cell death by day 6
